This is an account of results in publication PMC2593902, “Regulation of cyclic AMP response-element binding-protein (CREB) by Gq/11-protein-coupled receptors in human SH-SY5Y neuroblastoma cells” (Biochemical Pharmacology, 2008).

The test deals with T1, M3 muscarinic acetylcholine (mACh) receptor (Homo sapiens, UniProt P20309).
T1 construct: gene CHRM3
As to the kind of experiment: Fura-2 Ca2+ mobilization in SH-SY5Y cells endogenously expressing the receptor (also Ins([…])P3 and phospho-CREB). The test is classed as cell-based. A general note: Calcium flux is commonly read through the fluorescence of an indicator in the cells.

T1 sequence (P20309 whole entry): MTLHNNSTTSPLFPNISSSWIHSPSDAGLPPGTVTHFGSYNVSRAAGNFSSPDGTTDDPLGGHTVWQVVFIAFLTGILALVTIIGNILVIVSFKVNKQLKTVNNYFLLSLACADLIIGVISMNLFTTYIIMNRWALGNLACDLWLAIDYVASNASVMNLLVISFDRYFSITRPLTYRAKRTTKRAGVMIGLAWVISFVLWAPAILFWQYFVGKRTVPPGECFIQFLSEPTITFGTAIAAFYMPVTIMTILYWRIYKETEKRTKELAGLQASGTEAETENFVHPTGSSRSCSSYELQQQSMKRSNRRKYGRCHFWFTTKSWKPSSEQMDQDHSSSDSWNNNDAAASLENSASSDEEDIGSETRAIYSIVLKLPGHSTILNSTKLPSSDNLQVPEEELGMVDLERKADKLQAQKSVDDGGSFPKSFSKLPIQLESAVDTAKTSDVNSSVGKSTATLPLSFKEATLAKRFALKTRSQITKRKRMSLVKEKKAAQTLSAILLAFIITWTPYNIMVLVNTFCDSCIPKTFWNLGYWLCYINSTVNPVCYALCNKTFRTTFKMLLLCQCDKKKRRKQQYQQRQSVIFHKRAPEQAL

The term EC50 denotes the concentration at which the effect is half-maximal. Read a high EC50 as a less potent agent. In the case of `CC(=O)OC(C)C[N+](C)(C)C` (stereo not shown) [MCh, methacholine], the EC50 turned out to be 800 nM.
